Data from US6756367B2, “Benzo-oxadiazoles, -thiadiazoles and -1,4-diazines, pharmaceutical compositions containing them and a process for preparing them” (Novartis AG, priority 1998, dated 2004).
Counter-ions that a name gives are not always drawn.

Legend:
mouse = mouse elevated plus-maze (anxiolytic activity); assay type: in vivo
Source text: For example the anxiolytic activity of the agents of the invention could be confirmed in the mouse elevated plus-maze [see for example Rodgers R. J., Behavioural Pharmacology 8: 477-496 (1997) where the relevance of the elevated plus-maze is discussed on p. 486; for the method, see Rodgers R. J. et al. Ethology and Psychopharmacology (Eds S J Cooper and C A Hendrie), pp 9-44 (1994), J. Wiley, Chichester]. In this test, the agents of the invention show anxiolytic-like effects on administration of 0.1 to 30 mg/kg p.o.

human recombinant CRF1 = target: T1, human recombinant CRF1 (Homo sapiens, UniProt P34998); experiment: CRF-stimulated cyclic AMP accumulation in CHO cells expressing human recombinant CRF1 (antagonism, KB from curve shift); assay type: cell-based; conditions: cAMP, shift of CRF curve with antagonist 10 μM
T1 construct: expressed in transfected cells
T1 sequence (P34998 24-415): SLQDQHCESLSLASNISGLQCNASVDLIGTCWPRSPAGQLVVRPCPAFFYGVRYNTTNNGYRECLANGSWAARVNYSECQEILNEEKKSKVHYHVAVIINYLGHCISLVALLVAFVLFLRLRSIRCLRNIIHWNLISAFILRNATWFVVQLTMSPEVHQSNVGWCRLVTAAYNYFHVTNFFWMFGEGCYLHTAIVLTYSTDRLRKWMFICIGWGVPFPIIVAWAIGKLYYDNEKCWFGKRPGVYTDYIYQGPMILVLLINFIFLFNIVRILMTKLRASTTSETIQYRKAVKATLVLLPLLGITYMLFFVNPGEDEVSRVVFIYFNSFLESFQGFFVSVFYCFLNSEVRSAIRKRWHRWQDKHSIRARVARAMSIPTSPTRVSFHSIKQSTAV
Protocol: In particular the agents of the invention bind to CRF receptors.
Chinese hamster ovary (CHO) cells expressing human recombinant CRF1 (Chen et al., Proc Natl Acad Sci USA 90, 8967-8971, 1993) are propagated in Dulbecco's modified Eagle medium supplemented with 10% foetal calf serum, non-essential aminoacids, 100 U/ml penicillin, 100 mg/l streptomycin and 1 g/l geneticin (G418). For cyclic AMP determinations, cells are grown to confluence in 24-multiwell plates. Stimulation of cyclic AMP accumulation by CRF (human/rat form) is measured in intact cells, using the [^3H]adenine labelling technique, as described previously (Schoeffter et al., Neuropharmacology 36, 429-437, 1997). Concentration-response curves for CRF are constructed in the presence of putative antagonists (10 μM) or vehicle (dimethyl sulfoxide 1% vol). KB values are calculated from the rightward shifts of the control curve, according to the formula: KB=[antagonist, M]/concentration-ratio-1), where the concentration-ratio designates the ratio of CRF EC50 value in the presence/CRF EC50 value in the absence, of antagonist [Furchgott, In: catecholamines (edited by Blaschko H and Muscholl E) pp. 283-335. Springer, Berlin, 1972].

Row | melting point | Compound | other results
1 | 83 to 84 °C | CCCCN(CC)c1nc(C)nc(Nc2c(C)cc(C)c3nsnc23)c1C | –
2 | 112 to 114 °C | CCCN(CCC)c1nc(C)nc(Nc2c(Cl)cc(C)c3nsnc23)c1C | –
3 | 101 °C | CCCCN(CC)c1nc(C)nc(Nc2c(Cl)cc(Cl)c3nsnc23)c1C | –
4 | 118 to 121 °C | CCCN(CCC)c1nc(C)nc(Nc2c(Cl)cc(Cl)c3nsnc23)c1C | –
5 | 102 to 104 °C | CCCN(CCC)c1nc(C)nc(Nc2c(C)cc(Cl)c3nsnc23)c1C | –
6 | 56 °C | CCCCN(CCCC)c1nc(C)nc(Nc2c(Cl)cc(Cl)c3nsnc23)c1C | –
7 | 117 to 119 °C | CCCCN(CC)c1nc(C)nc(Nc2c(Cl)cc(Cl)c3nccnc23)c1C | –
8 | 105 °C | CCCCN(C)c1nc(C)nc(Nc2c(Cl)cc(Cl)c3nsnc23)c1C | –
9 | 116 °C | CCN(C)c1nc(C)nc(Nc2c(Cl)cc(Cl)c3nsnc23)c1C | –
10 | 107 °C | CCCN(CC)c1nc(C)nc(Nc2c(Cl)cc(Cl)c3nsnc23)c1C | –
11 | 189 to 193 °C | CCN(CC)c1nc(C)nc(Nc2c(Cl)cc(Cl)c3nsnc23)c1C (as salt: fumarate) | –

Continued, compound first:

Row | Compound | melting point | other results
12 | CCCN(CCC)c1nc(C)nc(Nc2c(C)cc(C)c3nsnc23)c1Cl | 106 to 108 °C | –
13 | CCCN(CCC)c1nc(C)nc(Nc2c(C)cc(C)c3nccnc23)c1C | 94 to 96 °C | –
14 | CCCN(CCC)c1nc(C)nc(Nc2c(C)cc(C)c3nsnc23)c1C#N | 171 to 173 °C | –
15 | C=CCN(CC=C)c1nc(C)nc(Nc2c(Cl)cc(Cl)c3nsnc23)c1C | 112 °C | –
16 | CCCN(CC)c1nc(C)nc(Nc2c(C)cc(C)c3nccnc23)c1C | 109 to 110 °C | –
17 | CCCN(CCC)c1cc(Nc2c(C)cc(C)c3nsnc23)nc(C)n1 (as salt: fumarate) | 177 to 179 °C | –
18 | CCCCN(CC)c1nc(C)nc(Nc2c(C)cc(C)c3nccnc23)c1C | 106 to 107 °C | –
19 | CCCN(CCC)c1nc(C)nc(Nc2c(C)cc(C)c3nsnc23)c1C [Example 1, 5,7-dimethyl-4-[2,5-dimethyl-6-(di-n-propyl)-amino-pyrimidin-4-yl]-amino-2,1,3-benzothiadiazole] | – | parameters related to motor stimulation in the elevated plus-maze (mouse; 0.1 to 10 mg/kg p.o., in contrast to the standard chlordiazepoxide): not affected; effect on anxiety-related behavioural parameters in the elevated plus-maze (mouse; doses of 0.1 to 10 mg/kg p.o.): significantly affect the anxiety-related behavioural parameters; dose of maximum effect on anxiety-related behavioural parameters (mouse; p.o., elevated plus-maze): 3 mg/kg; Kb (human recombinant CRF1): 36 nM
20 | CCCN(CCC)c1nc(C)nc(Nc2c(C)ccc3nsnc23)c1C | 95 to 98 °C | –
21 | CCCN(CCC)c1nc(C)nc(Nc2c(Cl)cc(Cl)c3nccnc23)c1C | 126 to 128 °C | –
22 | CCCN(CC)c1nc(C)nc(Nc2c(C)cc(C)c3nsnc23)c1C | 101 to 102 °C | –
23 | Cc1nc(Nc2c(Cl)cc(Cl)c3nsnc23)c(C)c(N(C)Cc2ccccc2)n1 | 138 °C | –
24 | CCC(CC)Nc1nc(C)nc(Nc2c(C)cc(C)c3nsnc23)c1C | 113 to 115 °C | –
25 | CCCN(CC)c1nc(C)nc(Nc2c(Cl)cc(Cl)c3nccnc23)c1C | 120 to 123 °C | –
26 | Cc1nc(NCc2ccccc2)c(C)c(Nc2c(Cl)cc(Cl)c3nsnc23)n1 | 126 °C | –
27 | CCCN(CCC)c1nc(C)nc(Nc2c(Cl)ccc3nsnc23)c1C | 77 to 80 °C | –
28 | CCC(C)Nc1nc(C)nc(Nc2c(C)cc(C)c3nsnc23)c1C (centres unmarked) | 88 °C | –
29 | CCCN(CCC)c1nc(C)nc(Nc2c(Cl)cc(C)c3nccnc23)c1C | 107 to 109 °C | –
